The values that follow come from a melting point compilation (Tetko et al.; mined from patent text by program, amines drawn as free bases though some values may be those of a salt).

Where only a bound is given, the exact number is not on record here.

A word on the melting point: it is the temperature of the solid-liquid transition. The compound `Nc1nnc(-c2ccc3ncn(-c4ccccc4Cl)c3c2)o1` yielded a melting point of 254 to 255 °C.
In the case of `CN1CCN(Cc2cc(NC(=O)Nc3ccc(Oc4cc(Cl)ncn4)cc3)cc(C(F)(F)F)c2)CC1`, the melting point is 291 to 292 °C.
In the case of `CCOc1ccc2nc3[nH]cnc(=O)c3cc2c1OC` it was 330 to 331 °C; in that of `COC(=O)Cc1ccc(OCc2ccc3ccccc3n2)c(Cl)c1`, 79 °C.
Turning to `Nc1nccc(OCC(F)(F)F)c1N`, the melting point lay within 126 to 128 °C.
The same measure for `CC1CCN(c2cc3nc(C(C)(C)C)sc3cc2NC(=S)Oc2ccccc2)CC1`: 201 to 205 °C; for `Cc1cc(-c2nnc3c4ccccc4c(OCc4ncn(C(C)C)n4)nn23)no1`: 179 to 181 °C; for `NC(=O)c1cccc(O)c1F`: 196 to 197 °C.
The same measure for `Nc1ccccc1N1CCN(CCCOc2cccc3c2CCCC3)CC1`: 100 to 101 °C; for `CCCc1nc2c(N)nc3cc(Oc4ccc([N+](=O)[O-])cc4)ccc3c2n1CC(C)C`: 209 to 211 °C.
For `Nc1nc(N)c2c(CCc3ccc(C(=O)N[C@@H](CCC(=O)O)C(=O)O)cc3)cnc-2[nH]1`, the melting point fell in the range of 258 to 262 °C.
Compound `Cc1ccc(S(=O)(=O)N2CCN(S(=O)(=O)c3ccc(C)cc3)[C@@H](c3ccccc3)C2)cc1` showed a melting point of 258 °C.
The same measure for `CCOC(=O)C1=C(C(=O)OCC)SCCS1`: 32 to 36 °C; for `CCOC(=O)C1CCNC(=O)C1=NCCc1ccccc1` (stereo unspecified): 99 to 100 °C; for `COc1cccc2c1OCC(/C=C/C=C/C=C/C(=O)O)=C2`: 226 to 228 °C.
Compound `CCCc1cc(O)nc(NCC)n1` yielded a melting point of 108 to 110 °C.
The same measure for `CC(=C1SC(=O)NC1=O)c1ccc(NCCOc2c(-c3ccc(F)cc3)n(C)c3ccccc3c2=O)cc1`: 130 to 132 °C.
The same measure for `O=C1CCC(N2C(=O)c3ccccc3C2=O)CC1`: 140 to 142 °C.
For `CC(=O)Nc1c(C(=O)c2cc(-c3ccccc3)no2)[nH]c2cc(Cl)ccc12`, the melting point lay within 209 to 210 °C.
The same measure for `CC(O)c1cc(C[C@H](NC(=O)c2c(Cl)cccc2Cl)C(=O)O)ccc1-c1ccccc1` (stereo partly specified): 115 to 117 °C.
`CSC(C)=NOC(=O)N(C)SN(C)C(=O)ON=C(C)C(C)=NOC(=O)N(C)SN(C)C(=O)ON=C(SC)C(=O)N(C)C` displayed a melting point of 87 to 110 °C.
Consider `CC(C)N=C(NC(C)C)ON1C(C)(C)CC(O)CC1(C)C`, for which the melting point was in the range of 118 to 123 °C.
In the case of `COc1ccc(NC(=O)N(C)Cc2cccc3c2C(=O)N(C2CCC(=O)NC2=O)C3=O)cc1` (stereo unspecified) it was 243 to 245 °C; in that of `Cc1ccc(-c2ccccc2C(N)=O)cc1`, 128 to 130 °C.
Take `OCc1nn(-c2ccccc2)c2c1CCC2`: the melting point lay within 94 to 95 °C.
In the case of `O=C(O)c1ccc(-c2ncc(-c3ccc(Cl)cc3)s2)cc1` it was > 300 °C.
On to `CCCCn1c(=O)c(C(=O)O)c(-c2ccc(Br)cc2)c2cccnc21`, for which the melting point was 158 to 160 °C.
`NC1=NCC(COc2ccccc2[N+](=O)[O-])O1` (stereo unspecified) displayed a melting point of 166 °C.
`Cc1cc(Nc2ccnc(Nc3ccc(S(=O)(=O)N(C)C4CCN(Cc5cn[nH]c5)CC4)cc3)n2)ccc1F` registered a melting point of 224 °C.
`COc1cc2c(cc1OC)C(=O)c1cc3ccccc3cc1C2=O`: the melting point is > 250 °C.
`N#CCc1nnc2n1-c1sc(Cl)cc1C(c1ccccc1Cl)=NC2` came in with a melting point of 217 to 220 °C.
The same measure for `O=C(OCc1ccccc1)N(CCNC(=O)C(F)(F)F)CCNC(=O)C(F)(F)F`: 131 to 132 °C; for `CC(C)Oc1ccc(F)cc1OCCN1C(=O)c2ccccc2C1=O`: 68 °C; for `Cc1ncn(-c2ccc(C=O)cc2)n1`: 125 to 128 °C.
Consider `O=C1c2ccccc2C(=O)N1OS(=O)(=O)c1ccc(Cl)cc1`, for which the melting point lay within 178 to 180 °C.
The same measure for `CN(C)c1ccc(C=C2Cc3cc4c(cc3C2=O)CCCC4)cc1`: 161 to 163 °C.
